In data set [1] the test system is iBBB. An excerpt:
To more fully assess the barrier properties of the iBBB we compared the paracellular permeability of molecules with molecular weights ranging from 0.1 to 80 kDa. […] To rule out the possibility that the reduced permeability of the iBBB was simply the result of additional layers of cells, we layered on top of BECs double the normal number of pericyte-only, astrocytes-only or a non-relevant cell type, mouse embryonic fibroblasts (MEFs).
The genotype distinction between APOE4/4 cells (isogenic) and APOE3/3 (parental) was assessed in terms of permeability of an iBBB membrane. FIG. 13A presents a schematic showing the iBBB with fluorescent molecules positioned on the Apical surface, which are then allowed to transition through the iBBB from the Apical surface to the Basolateral surface (FIG. 13B).

Data set [2] relates to iBBB. The data set can be described thus: Amyloid (Aβ-FITC) accumulation in iBBB. The class given is cell-based, human. The following applies: APOE3/3 iBBB; APOE raised to approximately 200 ng/ml, E3 or E4; labeled Aβ for 96 hours.
Protocol: (§1) Amyloid accumulation was determined using both neuronal cell conditioned media and 20 nM recombinant labeled Hilyte fluor 488 β-amyloid (1-40) (Anaspec, AS-60491-01) and β-amyloid (1-42) (Anaspec, AS-60479-01) resuspended in PBS. Aβ accumulation for each cell line and experimental permutation was determined from 2D cultures containing all three cells types containing same ratio of cells as 3D experiments. Total area positive for Aβ was divided by the total number of nuclei and normalized to experimental controls. At least four images for each biological replicate were analyzed and for each condition at least three biological replicates were employed. 2D quantifications were corroborated by 3D imaging and analysis.
The subject of data set [3] is APOE. Put plainly: APOE gene expression in iPSC-derived pericytes after two weeks of CaN inhibition (qRT-PCR). The class given is cell-based, human. Here is the method:
Total RNA was isolated using Trizol and zymogen RNA-direct spin column treated with DNAse on column of 30 minutes prior to washing and elution. For RT-PCRs, 500 ng of total RNA was reverse transcribed into cDNA with iScript (BioRad). Expression was quantified by SsoFast EvaGreen supermix (BioRad). For RNAsequencing, extracted total RNA was subject to QC using an Advanced Analytical-fragment Analyzer before library preparation using Illumina Neoprep stranded RNA-seq library preparation kit. Libraries were pooled for sequencing using Illumina HiSeq2000 or NextSeq500 platforms at the MIT Biomicro Center. The raw fastq data were aligned to human hg19 assembly using STAR 2.4.0 RNA-seq aligner. Mapped RNA-seq reads covering the edited APOE3/4 site were used to validate data genotypes. Gene raw counts were generated from the mapped data using feature Counts tool. The mapped reads were also processed by Cufflinks2.2 with hg19 reference gene annotation to estimate transcript abundances. Gene differential expression test between APOE3 and APOE4 groups of each cell type was performed using Cuffdiff module with adjusted q-value <0.05 for statistical significance. Geometric method was chosen as the library normalization method for Cuffdiff. Color-coded scatterplots were used to visualize group FPKM values for differentially expressed genes and other genes.
On the technique in general: Real-time PCR tracks product formation cycle by cycle.

For data set [4], the system named is E3/3 iBBB. Put plainly: Amyloid accumulation in E3/3 iBBB exposed to conditioned media from inhibitor-treated E4/4 pericytes. The following applies: media harvested from inhibitor-treated E4/4 pericytes, versus DMSO. The class given is cell-based, human.
Protocol: as §1
We then added 20 nM Aβ1-40/42-FITC to the cultures for an additional 48 hours after which we quantified the accumulation of AP-FITC for each condition.

On to “transferrin: fluorescently labeled Transferrin (ThermoFisher T-13342), permeability tracer”, for which the “permeability and accumulation on the Basolateral surface, APOE4/4 iBBB versus parental APOE3/3 iBBB” value in data set [1] is “greater permeability”.
Regarding “recombinant human APOE protein: recombinant human APOE protein (E3 or E4) added to iBBB culture media”, the Aβ accumulation result in data set [2] is “increase”.
Consider `O=C1C=CC(=O)C2=C1C1c3ccccc3C2c2ccccc21` [INCA6], for which the APOE expression result in data set [3] (APOE4/4 pericytes, two weeks, CsA 2 μM, FK506 5 μM, INCA6 5 μM, qRT-PCR) is “significantly reduced”. Further, the “expression of APOE” value in data set [3] (E3/4 heterozygous pericytes from three individuals) is “significant reduction”. For the same molecule, in data set [4], the amyloid accumulation entry is “significantly reduced”.
For the molecule “Aβ42-FITC: FITC-labeled amyloid-β 1-42 peptide”, the “permeability and accumulation on the Basolateral surface, APOE4/4 iBBB versus parental APOE3/3 iBBB” value in data set [1] was “greater permeability”.
